Like-named read-outs stand apart in the source and are kept apart here.
What was measured:
[1] = system: allodynia; experiment: Tactile allodynia (paw withdrawal threshold, % MPE) in L5/L6 spinal nerve ligated rats, Example 3; format: in vivo, Harlan Sprague-Dawley rats
Experimental: Male Harlan Sprague-Dawley rats were used (100-200 g). Rats were housed 2-3 to a cage with corn cob bedding and Purina rat chow and water ad libitum, in a standard facility with a 12 h/12 h day/night cycle. After surgical procedures involving chronic indwelling catheter insertion, animals were housed singly to prevent catheter damage.
Rats were allowed to recover 5-7 days before further testing or surgeries.
The catheters were 9 cm in intrathecal length and terminated near the lumbar enlargement. The rostral 3 cm of catheter was tunneled under the skin to externalize between the ears. Rats with neurologic deficits were discarded.
For intravascular access, external jugular catheters were fashioned from PE-50 tubing and inserted into an external jugular vein under halothane/oxygen anesthesia. Arterial catheters were also fashioned from PE-50 with a small bouton 1 cm from the intravascular end for suture securing; they were inserted into a carotid artery, taking care to spare the surrounding nerves. All catheters were flushed with heparinized saline (10 U/ml) and tunneled subcutaneously to emerge at the posterior base of the neck, and capped when not in use.
Monoethylglycinexylidide (MEGX) and 3-hydroxy monoethyl-glycinexylidide (3-OH MEGX) were dissolved in physiologic saline; 3-hydroxylidocaine (3-OH L) was dissolved in DMSO for intravenous administration.
Intravenous drugs were delivered to awake, unrestrained rats by slow infusion using a syringe pump (Harvard apparatus 22). Intrathecal drugs were delivered to awake, briefly restrained rats in a volume of 10 μl, followed by 10 μl of vehicle flush, using a calibrated tubing extension with a 30-gauge adapter fitting the implanted intrathecal catheter, attached to a geared Hamilton 100 μl glass syringe. IT drug delivery was monitored by observing the advancement of a small air bubble down the tubing.
Rats were placed in a plastic cage with an open wire mesh bottom and allowed to accommodate for approximately fifteen minutes. […] In brief, von Frey hairs were sequentially applied using an up-and-down paradigm to the left mid-plantar hindpaw with sufficient force to cause slight filament buckling. Positive responses were noted if the paw was sharply withdrawn. […] Otherwise, PWT were calculated by noting the stimulus level at which the first change in behavior occurred, collecting four additional responses to the continued up-and-down oscillation of stimulus presentation around the response threshold, and interpolating the 50% response threshold. For some comparisons, raw thresholds were converted to percent of maximum possible effect (% MPE), designating pre-treatment PWT (baselines) as 0% effect, and assigning a cutoff value of 100% effect to thresholds ≥15 g: therefore, % MPE values near 100 indicate normal mechanical thresholds (i.e., at or near 15 g), whereas values near 0 indicate allodynia. The following equation was used to compute % MPE:
% MPE=new threshold(g)-baseline threshold(g)×100/ 15 grams--baseline
Plasma drug levels and PWT were correlated using linear regression. Serially measured PWT and % MPE were compared using repeated measures ANOVA with post-hoc testing.

[2] = system: allodynia; experiment: Susceptibility of rat strains to anti-allodynia effects of lidocaine; format: in vivo, Sprague-Dawley versus Dark Agouti rats; conditions: FIG. 11 legend
[3] = Metabolism of 14C lidocaine after IV administration, HPLC profile; format: in vivo, Harlan Sprague-Dawley and Dark Agouti rats; conditions: 14C lidocaine IV, N=2
[4] = system: allodynia; conditions: Chaplan et al. 1995, IV or IT, cited from earlier work

In the case of `CCNCC(=O)Nc1c(C)ccc(O)c1C` [3-hydroxy MEGX, 2-(ethylamino)-N-(3-hydroxy-2,6-dimethylphenyl) acetamide], the “suppression of allodynia after IT administration (summary)” value ([1]; IT) is reported as “suppressed allodynia after IT administration”, the “MPE, IT 67 μg” value ([1]; IT, dose printed 67 μ, P<0.0001) is reported as 63±17% and the “effect on allodynia, IV (in words)” value ([1]; IV infusion, 20 mg/kg) is reported as “did not show a significant effect in suppressing allodynia”. The “activity as metabolite with regard to allodynia suppression” value ([1]; rat, in vivo) was “active metabolite with regard to allodynia suppression”.

With `CCN(CC)CC(=O)Nc1c(C)cccc1C` [lidocaine] the “susceptibility to anti-allodynia effects of lidocaine, Dark Agouti rats” value [2] was “not similarly susceptible”, the “susceptibility to anti-allodynia effects of lidocaine, Sprague-Dawley rats” value [2] was “susceptible to anti-allodynia effects of Lidocaine” and the “effect on allodynia / PWT, IT 500 μg (in words)” value ([1]; IT, 500 μg, after recovery of motor function) was “no effect on allodynia was seen”. The “glucuronidated 3-OH MEGX in elution profile, DA rats” value ([3]; Dark Agouti) was “absent from the profile of DA rats”, the “glucuronidated 3-OH MEGX in elution profile, SD rats” value ([3]; Sprague-Dawley) was “a large peak in the elution profile of SD rats, found to consist of a glucuronidated form of 3-OH MEGX” and the “anti-allodynic effect of lidocaine” value [4] was “no anti-allodynic effect after termination of motor block”. For the same compound, the “anti-allodynic effect of lidocaine” value ([4]; listed as Lidocaine) was “effective against allodynia by the intravenous, but not the intrathecal/regional routes”.
